Results on 3 compounds are retold here after paper PMC10420250, “Assessment of Purity, Stability, and Pharmacokinetics of NGP-1, a Novel Prodrug of GS441254 with Potential Anti-SARS-CoV-2 Activity, Using Liquid Chromatography” (Molecules, 2023).

Series [1] in a line: Stability of NGP-1 in artificial digestive juices (HPLC-DAD). The class given is in vitro ADME. From the text:
Esterification is the predominant reaction used for the generation of prodrugs, owing to the facile hydrolysis of esters by various and ubiquitous esterases present in the various matrices. However, the presence of esters, particularly cyclic lactones, may result in instability in acidic, basic, or esterase environments. In this study, HPLC-DAD was employed to assess the stability of NGP-1 in different artificial digestive juices. The test samples were collected at various time intervals subsequent to dissolving NGP-1 in artificial gastric juice (diluted HCl with pepsin, pH = 1.5) and artificial intestinal juice (PBS with trypsin, pH = 6.8).
Mobile phase A consisted of a phosphoric acid solution, while mobile phase B consisted of ACN. Gradient elution was employed to separate the components under the following conditions: 0–4 min, 30–50% B; 4–10 min, 50% B. The specific parameters for liquid chromatography are presented in Table 2. […] Then, the content of the objective analytes in each sample was calculated using the external standard method.

Series [2] is described as follows: Pharmacokinetic study in rats via gavage administration, plasma GS441 by LC-MS/MS. The format is in vivo, Sprague-Dawley rats. To be noted: equimolar doses. How it is done: A pharmacokinetic study was carried out in vivo using Sprague-Dawley rats to assess the behavior of NGP-1 when administered orally through the gastrointestinal route. The rats were randomly categorized into two groups (n = 6) and subjected to a 12 h overnight fast prior to oral administration. […] After administration, 0.5 mL of orbital blood was collected at specific time intervals in an EP tube with heparin moisturizing.
All the blood samples were promptly centrifuged at 4 °C to separate the upper plasma. A volume of 50 µL of plasma was subsequently transferred to a tube pre-filled with 450 µL of protein precipitant (H2O:ACN:MeOH = 1:4:4 containing 20 ng/mL of QX). […] After thorough mixing, the samples underwent high-speed centrifugation. The supernatants were extracted and centrifugated again. The resulting supernatants were collected and transferred into a vial for subsequent analysis.
The AB SCIEX QTRAP®4500 instrument, which comprised an LC system (ExionLC^TM, SCIEX, Framingham, MA, USA) and a triple-quadrupole mass spectrometer with an ESI interface, was used for the experiment. […] The data were acquired and analyzed using Analyst 1.7.3 coupled with MultiQuant 3.0.3 (SCIEX).

A further series deals with several viruses. To be noted: in vitro; cited from earlier work.

For the compound `CC(C)C(=O)OC[C@H]1O[C@@](C#N)(c2ccc3c(N)ncnn23)[C@@H]2OC(=O)O[C@@H]21` [NGP-1], the “Degradation rate in artificial gastric juice” value in series [1] (AGJ, diluted HCl with pepsin, pH = 1.5) was “accelerate significantly”. Further, the “Stability in artificial intestinal juice” value in series [1] (AIJ, PBS with trypsin, pH 6.8) is listed as “relatively stable”. Also, in series [2], the “AUC0–∞ of converted GS441 relative to directly administered GS441” value was “approximately four”; the “Frel / oral bioavailability of NGP-1 relative to GS441” value was “approximately four and four”.

For the compound `CCC(CC)COC(=O)[C@H](C)N[P@](=O)(OC[C@H]1O[C@@](C#N)(c2ccc3c(N)ncnn23)[C@H](O)[C@@H]1O)Oc1ccccc1` [RDV, remdesivir], in the series on several viruses, the “EC50 comparison GS441 vs RDV” value was “more potent”.

Turning to `N#C[C@@]1(c2ccc3c(N)ncnn23)O[C@H](CO)[C@@H](O)[C@H]1O` [GS441], in the series on several viruses, the “EC50 comparison GS441 vs RDV” value was “higher EC50 than RDV”.
